Assay: xn = mol fraction of the nth substance listed
Conditions: 328.15 K, Liquid

CCCCCCCl [1-chlorohexane] + CCCCCCCC
mass density [kg/m3]
Conditions | x2 = 0 | x2 = 0.1016 | x2 = 0.1996 | x2 = 0.3153 | x2 = 0.3948 | x2 = 0.4862 | x2 = 0.5938 | x2 = 0.6966 | x2 = 0.794 | x2 = 0.9001
20370 kPa | – | – | – | – | – | 773.56 | 755.51 | 739.04 | 723.83 | 707.88
22390 kPa | 865.82 | 845.55 | 826.81 | 805.24 | 791.08 | 775.27 | 757.24 | 740.74 | 725.52 | 709.57
24420 kPa | 867.51 | 847.24 | 828.51 | 806.94 | 792.78 | 776.96 | 758.91 | 742.4 | 727.18 | 711.21
26450 kPa | 869.18 | 848.91 | 830.19 | 808.59 | 794.43 | 778.61 | 760.54 | 744.05 | 728.79 | 712.83
28470 kPa | 870.8 | 850.52 | 831.8 | 810.22 | 796.05 | 780.22 | 762.15 | 745.64 | 730.38 | 714.38
29490 kPa | 871.6 | 851.32 | 832.59 | 811.01 | 796.83 | 781.01 | 762.93 | 746.43 | 731.16 | 715.18
30500 kPa | 872.4 | 852.13 | 833.4 | 811.81 | 797.63 | 781.8 | 763.73 | 747.21 | 731.95 | 715.96
32530 kPa | 873.95 | 853.71 | 834.95 | 813.36 | 799.19 | 783.35 | 765.25 | 748.74 | 733.44 | 717.46
34550 kPa | 875.49 | 855.25 | 836.5 | 814.87 | 800.71 | 784.87 | 766.77 | 750.23 | 734.96 | 718.95
36580 kPa | 877.05 | 856.79 | 838.03 | 816.42 | 802.23 | 786.39 | 768.27 | 751.74 | 736.44 | 720.42
38600 kPa | 878.53 | 858.28 | 839.51 | 817.9 | 803.7 | 787.85 | 769.73 | 753.2 | 737.86 | 721.85
39620 kPa | 879.31 | 859.03 | 840.27 | 818.64 | 804.43 | 788.56 | 770.44 | 753.9 | 738.58 | 722.55
